According to publication PMC13185819, “De Novo Multi‐Mechanism Antimicrobial Peptide Design via Multimodal Deep Learning” (Advanced Science, 2026):
In brackets after ≈: the same amount, converted by molar mass. Residues, ends and D or L forms follow the SMILES beside them.

What was measured:
Type in all cases: cell-based
[1] = tested on: E. faecium 1042
Procedure: (§1) Standard strains included S. aureus ATCC33592, S. aureus CICC25138, and Salmonella enterica ATCC14028, which were purchased from the China Center of Industrial Culture Collection (CICC). Standard strains including E.coli CMCC44102, Salmonella enterica CMCC50071, and S. aureus CMCC26003 were purchased from the National Center for Medical Culture Collections (CMCC). […] All experiments using the above strains were carried out in a BSL‐2 laboratory. The clinical laboratory of Qilu Hospital detected bacterial resistance to various antibiotics. All strains were streaked on Nutrient Broth (NB) agar medium and incubated overnight at 37°C.
(§2) The antimicrobial activity of the peptides was examined in sterile 96‐well plates using the broth microdilution according to the CLSI standard. The colonies were suspended in saline solution, the turbidity was adjusted to McFarland 0.5 to reach a bacterial concentration of 10^8 CFU/mL, and again diluted 100 times for the inhibition test. Then, 50 µL of bacterial suspension at 1 × 10^6 CFU/mL was incubated with the same volume of different concentrations of peptide solution [serial twofold dilutions in Mueller–Hinton Broth (Hopebio)]. […] All experiments were performed with three independent replicates.

[2] = tested on: E. faecium 21
Procedure: as §1, §2

[3] = tested on: E.coli 110
Procedure: as §1, §2

[4] = tested on: E.coli 208
Procedure: as §1, §2

[5] = tested on: K. pneumoniae 7713
Procedure: as §1, §2

[6] = tested on: P. aeruginosa 112
Procedure: as §1, §2

[7] = tested on: P. aeruginosa 116
Procedure: as §1, §2

[8] = tested on: P. aeruginosa 119
Procedure: as §1, §2

[9] = tested on: S. aureus 103
Procedure: as §1, §2

[10] = tested on: S. aureus 129
Procedure: as §1, §2

[11] = tested on: S. aureus ATCC33592
Procedure: as §1, §2

[12] = tested on: S. aureus CICC25138
Procedure: as §1, §2

SMILES | MIC (μg/mL) E. faecium 1042 [1] | MIC (μg/mL) E. faecium 21 [2] | MIC (μg/mL) E.coli 110 [3] | MIC (μg/mL) E.coli 208 [4] | MIC (μg/mL) K. pneumoniae 7713 [5] | MIC (μg/mL) P. aeruginosa 112 [6] | MIC (μg/mL) P. aeruginosa 116 [7] | MIC (μg/mL) P. aeruginosa 119 [8] | MIC (μg/mL) S. aureus 103 [9] | MIC (μg/mL) S. aureus 129 [10] | MIC (μg/mL) S. aureus ATCC33592 [11] | MIC (μg/mL) S. aureus CICC25138 [12]
CC[C@H](C)[C@H](NC(=O)[C@H](CCCCN)NC(=O)[C@H](Cc1c[nH]c2ccccc12)NC(=O)[C@@H](N)CCCCN)C(=O)N[C@@H](CCCCN)C(=O)N[C@@H](Cc1c[nH]c2ccccc12)C(=O)N1CCC[C@H]1C(=O)N[C@@H](CO)C(=O)N[C@@H](CC(N)=O)C(=O)N[C@@H](Cc1c[nH]c2ccccc12)C(=O)N[C@@H](Cc1ccccc1)C(=O)N[C@H](C(=O)N[C@@H](CCCCN)C(=O)N[C@@H](CC(C)C)C(N)=O)[C@@H](C)O [QLX-3DV-3] (H-KWKIKWPSNWFTKL-NH2) | 8 µg/mL (≈ 4.3 µM) | 8 µg/mL (≈ 4.3 µM) | 16 µg/mL (≈ 8.6 µM) | 8 µg/mL (≈ 4.3 µM) | 16 µg/mL (≈ 8.6 µM) | 32 µg/mL (≈ 17.2 µM) | 16 µg/mL (≈ 8.6 µM) | 32 µg/mL (≈ 17.2 µM) | 32 µg/mL (≈ 17.2 µM) | 64 µg/mL (≈ 34.4 µM) | 32 µg/mL (≈ 17.2 µM) | 32 µg/mL (≈ 17.2 µM)
CC[C@H](C)[C@H](NC(=O)[C@H](CCCCN)NC(=O)[C@H](Cc1c[nH]c2ccccc12)NC(=O)[C@@H](N)CCCCN)C(=O)N[C@@H](CCCCN)C(=O)N[C@@H](Cc1c[nH]c2ccccc12)C(=O)N1CCC[C@H]1C(=O)N[C@@H](CO)C(=O)N[C@@H](CCCNC(=N)N)C(=O)N[C@@H](Cc1c[nH]c2ccccc12)C(=O)N[C@@H](Cc1ccccc1)C(=O)N[C@H](C(=O)N[C@@H](CCCCN)C(=O)N[C@@H](CC(C)C)C(N)=O)[C@@H](C)O [QLX-3DV-4] (H-KWKIKWPSRWFTKL-NH2) | 16 µg/mL (≈ 8.41 µM) | 8 µg/mL (≈ 4.2 µM) | 32 µg/mL (≈ 16.8 µM) | 16 µg/mL (≈ 8.41 µM) | 16 µg/mL (≈ 8.41 µM) | 32 µg/mL (≈ 16.8 µM) | 32 µg/mL (≈ 16.8 µM) | 32 µg/mL (≈ 16.8 µM) | 16 µg/mL (≈ 8.41 µM) | 32 µg/mL (≈ 16.8 µM) | 32 µg/mL (≈ 16.8 µM) | 16 µg/mL (≈ 8.41 µM)
CC[C@H](C)[C@H](NC(=O)[C@H](CCCCN)NC(=O)[C@H](Cc1c[nH]c2ccccc12)NC(=O)[C@@H](N)CCCCN)C(=O)N[C@@H](CCCCN)C(=O)N[C@@H](CCCNC(=N)N)C(=O)N1CCC[C@H]1C(=O)N[C@H](C(=O)N[C@@H](CCCCN)C(=O)N[C@@H](Cc1c[nH]c2ccccc12)C(=O)N[C@@H](Cc1ccccc1)C(=O)N[C@H](C(=O)N[C@@H](CCSC)C(=O)N[C@@H](CC(C)C)C(N)=O)[C@@H](C)O)C(C)C [QLX-3DV-5] (H-KWKIKRPVKWFTML-NH2) | 32 µg/mL (≈ 17.2 µM) | 8 µg/mL (≈ 4.3 µM) | 8 µg/mL (≈ 4.3 µM) | 8 µg/mL (≈ 4.3 µM) | 8 µg/mL (≈ 4.3 µM) | 16 µg/mL (≈ 8.6 µM) | 128 µg/mL (≈ 68.8 µM) | 64 µg/mL (≈ 34.4 µM) | 32 µg/mL (≈ 17.2 µM) | 128 µg/mL (≈ 68.8 µM) | 64 µg/mL (≈ 34.4 µM) | 64 µg/mL (≈ 34.4 µM)
CC[C@H](C)[C@H](NC(=O)[C@H](CCCCN)NC(=O)[C@H](Cc1c[nH]c2ccccc12)NC(=O)[C@@H](N)CCCCN)C(=O)N[C@@H](CCCCN)C(=O)N[C@@H](CCC(N)=O)C(=O)N[C@@H](Cc1c[nH]c2ccccc12)C(=O)N[C@H](C(=O)N[C@@H](CCCNC(=N)N)C(=O)N[C@@H](Cc1c[nH]c2ccccc12)C(=O)N[C@@H](Cc1ccccc1)C(=O)N[C@@H](CCCNC(=N)N)C(=O)N[C@@H](CCCCN)C(=O)N[C@@H](CC(C)C)C(N)=O)C(C)C [QLX-3DV-6] (H-KWKIKQWVRWFRKL-NH2) | 8 µg/mL (≈ 4 µM) | 8 µg/mL (≈ 4 µM) | 8 µg/mL (≈ 4 µM) | 4 µg/mL (≈ 2 µM) | 16 µg/mL (≈ 7.99 µM) | 32 µg/mL (≈ 16 µM) | 16 µg/mL (≈ 7.99 µM) | 128 µg/mL (≈ 64 µM) | 16 µg/mL (≈ 7.99 µM) | 16 µg/mL (≈ 7.99 µM) | 16 µg/mL (≈ 7.99 µM) | 16 µg/mL (≈ 7.99 µM)
CC[C@H](C)[C@H](NC(=O)[C@H](CCCCN)NC(=O)[C@H](CCCNC(=N)N)NC(=O)[C@@H](N)CCCCN)C(=O)N[C@@H](CCCCN)C(=O)N[C@@H](Cc1c[nH]c2ccccc12)C(=O)N[C@@H](CCCCN)C(=O)N[C@H](C(=O)N[C@@H](CCCNC(=N)N)C(=O)N[C@@H](Cc1c[nH]c2ccccc12)C(=O)N[C@@H](Cc1ccccc1)C(=O)N[C@H](C(=O)N[C@@H](Cc1ccc(O)cc1)C(=O)N[C@@H](CC(C)C)C(N)=O)[C@@H](C)O)C(C)C [QLX-3DV-7] (H-KRKIKWKVRWFTYL-NH2) | 8 µg/mL (≈ 4.1 µM) | 8 µg/mL (≈ 4.1 µM) | 16 µg/mL (≈ 8.2 µM) | 32 µg/mL (≈ 16.4 µM) | 16 µg/mL (≈ 8.2 µM) | 32 µg/mL (≈ 16.4 µM) | 8 µg/mL (≈ 4.1 µM) | 64 µg/mL (≈ 32.8 µM) | 16 µg/mL (≈ 8.2 µM) | 16 µg/mL (≈ 8.2 µM) | 16 µg/mL (≈ 8.2 µM) | 16 µg/mL (≈ 8.2 µM)
CC[C@H](C)[C@H](NC(=O)[C@H](CCCCN)NC(=O)[C@H](CCCNC(=N)N)NC(=O)[C@@H](N)CCCCN)C(=O)N[C@@H](CCCCN)C(=O)N[C@@H](Cc1c[nH]c2ccccc12)C(=O)N[C@@H](Cc1c[nH]c2ccccc12)C(=O)N[C@H](C(=O)N[C@@H](CCCNC(=N)N)C(=O)N[C@@H](Cc1c[nH]c2ccccc12)C(=O)N[C@H](C(=O)N[C@H](C(=O)N[C@@H](CCCCN)C(=O)N[C@@H](CC(C)C)C(N)=O)[C@@H](C)O)[C@@H](C)CC)C(C)C [QLX-3DV-8] (H-KRKIKWWVRWITKL-NH2) | 8 µg/mL (≈ 4.12 µM) | 4 µg/mL (≈ 2.06 µM) |  |  | 8 µg/mL (≈ 4.12 µM) | 16 µg/mL (≈ 8.25 µM) | 8 µg/mL (≈ 4.12 µM) | 32 µg/mL (≈ 16.5 µM) | 8 µg/mL (≈ 4.12 µM) | 8 µg/mL (≈ 4.12 µM) |  | 16 µg/mL (≈ 8.25 µM)
CC[C@H](C)[C@H](NC(=O)[C@H](CCCCN)NC(=O)[C@H](Cc1c[nH]c2ccccc12)NC(=O)[C@@H](N)CCCCN)C(=O)N[C@@H](CCCCN)C(=O)N[C@@H](Cc1c[nH]c2ccccc12)C(=O)N[C@@H](CCCNC(=N)N)C(=O)N[C@H](C(=O)N[C@@H](CCCNC(=N)N)C(=O)N[C@@H](Cc1c[nH]c2ccccc12)C(=O)N[C@@H](Cc1ccccc1)C(=O)N[C@@H](CCCCN)C(=O)N[C@@H](CC(C)C)C(=O)N[C@@H](CC(C)C)C(N)=O)C(C)C [QLX-3DV-9] (H-KWKIKWRVRWFKLL-NH2) | 2 µg/mL (≈ 1.01 µM) | 2 µg/mL (≈ 1.01 µM) | 8 µg/mL (≈ 4.03 µM) | 16 µg/mL (≈ 8.05 µM) | 16 µg/mL (≈ 8.05 µM) | 16 µg/mL (≈ 8.05 µM) | 4 µg/mL (≈ 2.01 µM) | 16 µg/mL (≈ 8.05 µM) | 8 µg/mL (≈ 4.03 µM) | 8 µg/mL (≈ 4.03 µM) | 16 µg/mL (≈ 8.05 µM) | 8 µg/mL (≈ 4.03 µM)
CC[C@H](C)[C@H](NC(=O)[C@H](CCCCN)NC(=O)[C@H](Cc1c[nH]c2ccccc12)NC(=O)[C@@H](N)CCCCN)C(=O)N[C@@H](CCCCN)C(=O)N[C@@H](Cc1c[nH]c2ccccc12)C(=O)N[C@@H](Cc1c[nH]cn1)C(=O)N[C@H](C(=O)N[C@@H](CCCNC(=N)N)C(=O)N[C@@H](Cc1c[nH]c2ccccc12)C(=O)N[C@@H](Cc1ccccc1)C(=O)N[C@@H](CCCNC(=N)N)C(=O)N[C@H](C(=O)N[C@@H](CC(C)C)C(N)=O)C(C)C)C(C)C [QLX-3DV-10] (H-KWKIKWHVRWFRVL-NH2) | 8 µg/mL (≈ 4.04 µM) | 8 µg/mL (≈ 4.04 µM) | 32 µg/mL (≈ 16.1 µM) | 32 µg/mL (≈ 16.1 µM) | 16 µg/mL (≈ 8.07 µM) | 32 µg/mL (≈ 16.1 µM) | 8 µg/mL (≈ 4.04 µM) | 64 µg/mL (≈ 32.3 µM) | 8 µg/mL (≈ 4.04 µM) | 16 µg/mL (≈ 8.07 µM) | 16 µg/mL (≈ 8.07 µM) | 32 µg/mL (≈ 16.1 µM)
